Legend:
[1] = Efficiency of entrapment of drugs/bioactive agents in collagen disks or particles; format: physicochemical
Experimental: Efficiency of entrapment of drugs/bioactive agents in the collagen disks or particles, and kinetics of drug efflux for small molecular weight drugs was determined utilizing absorption spectra (mostly in an ELISA plate reader), fluorescence emission spectra (mostly in a fluorescence plate reader), and HPLC. Half-life data was processed according to a theoretical framework previously developed for liposomes (Margalit et al., 1991), incorporated herein in its entirety) which yields the rate constant for drug efflux.

[2] = tested on: glioma C6 line; assay: Treatment of multi-drug resistant cell lines, cell survival by MTT assay; format: cell-based, rat; settings: 24-28 hours post-treatment
Experimental: (§1) FIGS. 6A-6C show results for three cell lines, C26 (FIG. 6A), HT29 (FIG. 6B) and […], in terms of response to chemotherapeutic drugs encapsulated in collagen particles. The bars represent 60-64 repeats and the error bars represent the standard deviation. Three asterisks (***) indicate p<0.001.
(§2) Cells were seeded onto 96 well plates, and the experiment was initiated at semi-confluency, usually 24 hours post seeding. For the test system, cells were given a selected dose of the drug of choice, which was entrapped in a collagen particle formulation (washed of excess free drug prior to use). The controls were given the same dose of free drug, and a dose of drug-free collagen particles at a dose similar to that of the test system. Cell survival was determined 24-28 hours post-treatment, using the MTT assay (Nutt, et al. 2000; and Larsen et al., 2000).

[3] = tested on: HT29 colon adenocarcimona cell line; assay: as above; format: cell-based, human; settings: 24-28 hours post-treatment
Experimental: as §1, §2

[4] = tested on: C26 colon adenocarcimona cell line; assay: as above; format: cell-based, mouse; settings: 24-28 hours post-treatment
Experimental: as §1, §2

[5] = Collagen Disks (1-20 mm in a diameter)
[6] = Collagen particles (0.5-10 μm in diameter)

Row | Compound | % Entrapment [1, 5] | % Entrapment [1, 6] | cell survival / response (MTT), FIGS. 6A-6C [2] | cell survival / response (MTT), FIGS. 6A-6C [3] | cell survival / response (MTT), FIGS. 6A-6C [4]
1 | O=C(N[C@H](CO)[C@H](O)c1ccc([N+](=O)[O-])cc1)C(Cl)Cl [CAM, chloramphenicol] | 89.5 ± 1.4% | 94.1 ± 0.8% | – | – | –
2 | COc1cccc2c1C(=O)c1c(O)c3c(c(O)c1C2=O)C[C@@](O)(C(=O)CO)C[C@@H]3O[C@H]1C[C@H](N)[C@H](O)[C@H](C)O1 [DOX, doxorubicin] | 78.4 ± 2.4% | 71.9 ± 0.4% | typical for the inherent form of MDR | typical for the inherent form of MDR | typical for the inherent form of MDR
3 | CO[C@@]12[C@H](COC(N)=O)C3=C(C(=O)C(C)=C(N)C3=O)N1C[C@@H]1N[C@@H]12 [MMC, Mitomycin C] | 80.2 ± 1.0% | 67.3 ± 2.1% | – | – | –
4 | Insulin: high molecular weight drug entrapped in collagen particles and disks | 89.4 ± 2.3% | 91.2 ± 0.7% | – | – | –

From US8808664B2, “Lipidated glycoprotein particles and methods of use” (Ramot at Tel-Aviv University Ltd., priority 2004, dated 2014)
